Experiments:
[1] = molecular target: human TYK2 (JH2domain-pseudokinase) (Homo sapiens (Human), UniProt P29597); experiment: TYK2 JH2 Domain Binding Assay (KINOMEscan); settings: 11-point 3-fold dilution, top concentration 30,000 nM, duplicate
Method in brief: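 Competition binding used an NFkB-DNA-tagged fusion of TYK2 JH2 (G556–D888) expressed in HEK293 extracts against an immobilised ligand, 1 h at room temperature. Bead-bound kinase was quantified by qPCR. Kd came from an 11-point 3-fold series with a 30,000 nM top concentration and 0.9% DMSO, Hill slope −1, run in duplicate.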

TYK2 kinase domain (JH1) = TYK2 kinase domain (JH1) (Homo sapiens (Human), UniProt P29597); experiment: TYK2 Radioactive Kinase Assay; format: biochemical; settings: compound at 10 μM; ATP at 10 μM; 120 min at room temp
TYK2 kinase domain (JH1), sequence (P29597 897-1176): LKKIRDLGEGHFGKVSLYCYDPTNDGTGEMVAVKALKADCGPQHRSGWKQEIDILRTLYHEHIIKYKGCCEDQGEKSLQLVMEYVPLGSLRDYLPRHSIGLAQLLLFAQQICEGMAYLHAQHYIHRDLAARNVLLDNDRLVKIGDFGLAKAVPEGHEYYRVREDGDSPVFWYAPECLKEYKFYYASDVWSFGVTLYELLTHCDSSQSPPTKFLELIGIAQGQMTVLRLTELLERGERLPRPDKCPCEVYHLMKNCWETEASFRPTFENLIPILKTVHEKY
Procedure: (§1) Peptide substrate, [KKSRGDYMTMQIG], (20 μM) was prepared in reaction buffer (20 mM Hepes pH 7.5, 10 mM MgCl2, 1 mM EGTA, 0.02% Brij35, 0.02 mg/mL BSA, 0.1 mM […], 2 mM DTT, 1% DMSO). TYK2 (Invitrogen) kinase was added, followed by compounds in DMSO. ^33PATP was added to initiate the reaction in ATP at 10 μM. The kinase reaction was incubated for 120 min at room temp and reactions were spotted onto P81 ion exchange paper (Whatman #3698-915), and then washed extensively in 0.75% phosphoric acid, prior to reading the radioactivity counts. For JAK2 (Invitrogen) kinase assay the peptide substrate poly[Glu:Tyr](4:1), 0.2 mg/ml was used, in the reaction carried out the same as for TYK2.
(§2) The TYK2 and JAK2 radioactive kinase assay measures the percent inhibition at the TYK2 kinase domain (JH1) and the percent inhibition at the JAK2 kinase domain (JH1). Results of the assay are expressed as percent inhibition at 10 μM.

JAK2 kinase domain (JH1) = JAK2 kinase domain (JH1) (Homo sapiens (Human), UniProt O60674); experiment: JAK2 Radioactive Kinase Assay; format: biochemical; settings: compound at 10 μM; ATP at 10 μM; substrate poly[Glu:Tyr](4:1)
JAK2 kinase domain (JH1), sequence (O60674 849-1124): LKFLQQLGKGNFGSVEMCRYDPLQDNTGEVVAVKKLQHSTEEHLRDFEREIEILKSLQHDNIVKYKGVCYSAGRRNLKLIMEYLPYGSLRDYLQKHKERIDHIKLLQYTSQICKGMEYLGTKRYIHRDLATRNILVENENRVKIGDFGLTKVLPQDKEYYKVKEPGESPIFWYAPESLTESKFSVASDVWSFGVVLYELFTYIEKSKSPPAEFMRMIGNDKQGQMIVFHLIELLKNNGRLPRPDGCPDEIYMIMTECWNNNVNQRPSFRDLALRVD
Procedure: as §1, §2

human TYK2 (JH2domain-pseudokinase), sequence (P29597 556-888): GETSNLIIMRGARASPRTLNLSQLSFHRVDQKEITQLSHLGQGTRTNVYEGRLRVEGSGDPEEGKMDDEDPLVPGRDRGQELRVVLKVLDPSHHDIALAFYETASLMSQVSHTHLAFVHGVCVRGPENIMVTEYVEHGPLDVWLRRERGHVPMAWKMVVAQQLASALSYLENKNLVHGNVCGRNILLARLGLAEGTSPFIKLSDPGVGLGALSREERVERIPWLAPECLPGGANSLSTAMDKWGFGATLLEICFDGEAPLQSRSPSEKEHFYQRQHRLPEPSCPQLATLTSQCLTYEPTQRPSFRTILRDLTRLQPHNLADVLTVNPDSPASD

Row | Kd [1] | inhibition at 10 µM (TYK2 kinase domain (JH1)) | inhibition at 10 µM (JAK2 kinase domain (JH1)) | SMILES
1 | < 0.2 nM | < 50% | < 50% | [2H]C([2H])([2H])NC(=O)c1cnc(NC(=O)C2CC2)c2[nH]c(-c3cccc(-c4ncn(C)n4)c3)cc12 [Compound I-6, 7-(cyclopropanecarboxamido)-N-(methyl-d3)-2-(3-(1-methyl-1H-1,2,4-triazol-3-yl)phenyl)-1H-pyrrolo[2,3-c]pyridine-4-carboxamide]
2 | 0.2 to 1 nM | < 50% | < 50% | CNC(=O)c1cnc(NC(=O)C2CC2)c2[nH]c(-c3cc(-c4ncco4)ccn3)cc12 [Compound I-15, 7-(cyclopropanecarboxamido)-N-methyl-2-(4-(oxazol-2-yl)pyridin-2-yl)-1H-pyrrolo[2,3-c]pyridine-4-carboxamide]
3 | < 0.2 nM | < 50% | < 50% | CNC(=O)c1cnc(NC(=O)C2CC2)c2[nH]c(-c3ccc(N4CCCC4=O)cc3OC)cc12 [Compound I-26, 7-(cyclopropanecarboxamido)-2-(2-methoxy-4-(2-oxopyrrolidin-1-yl)phenyl)-N-methyl-1H-pyrrolo[2,3-c]pyridine-4-carboxamide]
4 | 0.2 to 1 nM | < 50% | < 50% | CNC(=O)c1ccc(-c2cc3c(C(=O)NC)cnc(NC(=O)C4CC4)c3[nH]2)c(OC)c1 [Compound I-29, 7-(cyclopropanecarboxamido)-2-(2-methoxy-4-(methylcarbamoyl)phenyl)-N-methyl-1H-pyrrolo[2,3-c]pyridine-4-carboxamide]
5 | 0.2 to 1 nM | < 50% | < 50% | CCOc1ncccc1-c1cc2c(C(=O)NC)cnc(NC(=O)C3CC3)c2[nH]1 [Compound I-33, 7-(cyclopropanecarboxamido)-2-(2-ethoxypyridin-3-yl)-N-methyl-1H-pyrrolo[2,3-c]pyridine-4-carboxamide]
6 | 1 to 10 nM | < 50% | < 50% | CCn1cc(-c2cc3c(C(=O)NC)cnc(NC(=O)C4CC4)c3[nH]2)ccc1=O [Compound I-31, 7-(cyclopropanecarboxamido)-2-(1-ethyl-6-oxo-1,6-dihydropyridin-3-yl)-N-methyl-1H-pyrrolo[2,3-c]pyridine-4-carboxamide]
7 | 0.2 to 1 nM | < 50% | < 50% | CNC(=O)c1cnc(NC(=O)C2CC2)c2[nH]c(-c3cccc(-n4ccc(C)n4)c3)cc12 [Compound I-7, 7-(cyclopropanecarboxamido)-N-methyl-2-(3-(3-methyl-1H-pyrazol-1-yl)phenyl)-1H-pyrrolo[2,3-c]pyridine-4-carboxamide]
8 | 0.2 to 1 nM | < 50% | < 50% | [2H]C([2H])([2H])NC(=O)c1cnc(NC(=O)C2CC2)c2[nH]c(-c3cccc(-c4ncn(C)n4)n3)cc12 [Compound I-35, 7-(cyclopropanecarboxamido)-N-(methyl-d3)-2-(6-(1-methyl-1H-1,2,4-triazol-3-yl)pyridin-2-yl)-1H-pyrrolo[2,3-c]pyridine-4-carboxamide]
9 | 0.2 to 1 nM | < 50% | < 50% | CNC(=O)c1cnc(NC(=O)C2CC2)c2[nH]c(-c3ccc4cn(C5CC5)nc4c3)cc12 [Compound I-20, 7-(cyclopropanecarboxamido)-2-(2-cyclopropyl-2H-indazol-6-yl)-N-methyl-1H-pyrrolo[2,3-c]pyridine-4-carboxamide]
10 | 0.2 to 1 nM | < 50% | < 50% | CNC(=O)c1cnc(NC(=O)C2CC2)c2[nH]c(-c3cccc(-n4cnnc4)c3)cc12 [Compound I-18, 2-(3-(4H-1,2,4-triazol-4-yl)phenyl)-7-(cyclopropanecarboxamido)-N-methyl-1H-pyrrolo[2,3-c]pyridine-4-carboxamide]
11 | 0.2 to 1 nM | < 50% | < 50% | CNC(=O)c1cnc(NC(=O)C2CC2)c2[nH]c(-c3cc(-n4ccc(C)n4)ccn3)cc12 [Compound I-17, 7-(cyclopropanecarboxamido)-N-methyl-2-(4-(3-methyl-1H-pyrazol-1-yl)pyridin-2-yl)-1H-pyrrolo[2,3-c]pyridine-4-carboxamide]
12 | 0.2 to 1 nM | < 50% | < 50% | CNC(=O)c1cnc(NC(=O)C2CC2)c2[nH]c(-c3cc(-c4csc(C)n4)ccn3)cc12 [Compound I-10, 7-(cyclopropanecarboxamido)-N-methyl-2-(4-(2-methylthiazol-4-yl)pyridin-2-yl)-1H-pyrrolo[2,3-c]pyridine-4-carboxamide]
13 | < 0.2 nM | < 50% | < 50% | CNC(=O)c1cnc(NC(=O)C2CC2)c2[nH]c(-c3cccnc3OC3CC3)cc12 [Compound I-34, 7-(cyclopropanecarboxamido)-2-(2-cyclopropoxypyridin-3-yl)-N-methyl-1H-pyrrolo[2,3-c]pyridine-4-carboxamide]
14 | < 0.2 nM | < 50% | < 50% | CNC(=O)c1cnc(NC(=O)C2CC2)c2[nH]c(-c3cccc(-c4ncn(C)n4)c3F)cc12 [Compound I-36, 7-(cyclopropanecarboxamido)-2-(2-fluoro-3-(1-methyl-1H-1,2,4-triazol-3-yl)phenyl)-N-methyl-1H-pyrrolo[2,3-c]pyridine-4-carboxamide]
15 | < 0.2 nM | < 50% | < 50% | CNC(=O)c1cnc(NC(=O)C2CC2)c2[nH]c(-c3cc(-c4ncn(C)n4)ccn3)cc12 [Compound I-13, 7-(cyclopropanecarboxamido)-N-methyl-2-(4-(1-methyl-1H-1,2,4-triazol-3-yl)pyridin-2-yl)-1H-pyrrolo[2,3-c]pyridine-4-carboxamide]
16 | 1 to 10 nM | < 50% | < 50% | CNC(=O)c1cnc(NC(=O)C2CC2)c2[nH]c(-c3cc(-c4nccs4)cnc3OC3CC3)cc12 [Compound I-39, 7-(cyclopropanecarboxamido)-2-(2-cyclopropoxy-5-(thiazol-2-yl)pyridin-3-yl)-N-methyl-1H-pyrrolo[2,3-c]pyridine-4-carboxamide]
17 | 0.2 to 1 nM | < 50% | < 50% | CNC(=O)c1cnc(NC(=O)C2CC2)c2[nH]c(-c3ccc(C4=NC(C)(C)CO4)cc3OC)cc12 [Compound I-9, 7-(cyclopropanecarboxamido)-2-(4-(4,4-dimethyl-4,5-dihydrooxazol-2-yl)-2-methoxyphenyl)-N-methyl-1H-pyrrolo[2,3-c]pyridine-4-carboxamide]
18 | < 0.2 nM | < 50% | < 50% | CNC(=O)c1cnc(NC(=O)C2CC2)c2[nH]c(-c3cccc(-c4cnc(C)cn4)c3)cc12 [Compound I-27, 7-(cyclopropanecarboxamido)-N-methyl-2-(3-(5-methylpyrazin-2-yl)phenyl)-1H-pyrrolo[2,3-c]pyridine-4-carboxamide]
19 | 0.2 to 1 nM | < 50% | < 50% | CNC(=O)c1cnc(NC(=O)C2CC2)c2[nH]c(-c3cc(-c4nccs4)ccn3)cc12 [Compound I-14, 7-(cyclopropanecarboxamido)-N-methyl-2-(4-(thiazol-2-yl)pyridin-2-yl)-1H-pyrrolo[2,3-c]pyridine-4-carboxamide]

Source: patent US11053241B2, “TYK2 inhibitors and uses thereof” (Nimbus Lakshmi, Inc., priority 2018, dated 2021)
